Test results from patent US7410975B2, “Small molecule toll-like receptor (TLR) antagonists” (Coley Pharmaceutical Group, Inc., priority 2003, dated 2008).
Counter-ions that a name gives are not always drawn.

Target: T1, human TLR3 (hTLR3) (Homo sapiens, UniProt O15455)
T1 construct: expressed in transfected cells
T1 sequence (O15455 24-904): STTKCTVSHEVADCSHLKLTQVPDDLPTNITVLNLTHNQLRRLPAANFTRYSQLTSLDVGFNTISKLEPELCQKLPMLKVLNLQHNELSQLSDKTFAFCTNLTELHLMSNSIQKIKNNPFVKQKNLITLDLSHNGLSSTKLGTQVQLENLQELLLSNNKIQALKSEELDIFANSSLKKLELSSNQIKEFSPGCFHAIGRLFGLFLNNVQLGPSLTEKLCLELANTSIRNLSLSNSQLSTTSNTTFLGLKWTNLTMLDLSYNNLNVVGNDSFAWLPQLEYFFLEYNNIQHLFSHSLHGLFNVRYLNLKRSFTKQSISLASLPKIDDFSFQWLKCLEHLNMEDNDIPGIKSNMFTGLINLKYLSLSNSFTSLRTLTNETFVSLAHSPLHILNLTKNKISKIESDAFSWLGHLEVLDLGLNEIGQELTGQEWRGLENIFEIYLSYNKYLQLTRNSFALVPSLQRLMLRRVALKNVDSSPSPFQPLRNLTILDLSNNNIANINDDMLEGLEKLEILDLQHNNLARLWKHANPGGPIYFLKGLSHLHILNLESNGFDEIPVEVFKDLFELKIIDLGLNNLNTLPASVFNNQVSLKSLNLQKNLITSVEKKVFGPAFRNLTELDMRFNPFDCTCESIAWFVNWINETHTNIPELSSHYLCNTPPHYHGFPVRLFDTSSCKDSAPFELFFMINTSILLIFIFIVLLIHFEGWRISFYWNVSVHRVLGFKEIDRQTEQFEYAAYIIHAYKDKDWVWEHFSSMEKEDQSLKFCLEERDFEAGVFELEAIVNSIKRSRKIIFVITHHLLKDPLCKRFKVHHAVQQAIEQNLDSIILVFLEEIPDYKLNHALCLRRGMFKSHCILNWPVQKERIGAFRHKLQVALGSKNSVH
Assay: Antagonist screen, hTLR3-NFκB-293 cells, NF-κB-luciferase reporter, with EC50 of poly(I:C)
Assay type: cell-based
Settings: compound at 0.5, 5, 50 μg/ml; EC50 concentration of poly(I:C); 16 h; NF-κB-luciferase
Procedure: The method is described in greater detail as follows. The cells for each individual cell clone (hTLR3-NFκB-293, hTLR7-NFκB-293, hTLR8-NFκB-293 and hTLR9-NFκB-293) were counted and seeded one day before the stimulation at 1.5×10^4 cells per well in 96-well cell culture plates. To become adherent the cells were incubated after seeding overnight at 37° C. in 5% CO2 humidified air.
The screen for each compound was performed at the same time for all of the receptors TLR3, TLR7, TLR8 and TLR9. Up to fifteen test compounds, each assayed in duplicate at each of three different final concentrations (0.5 μg/ml, 5 μg/ml, and 50 μg/ml), were used for 16 h cell stimulation on a single multiwell culture plate. A 4× final concentration master plate was created to prepare the different test compounds before they were added to the cells.
Controls were added as duplicates individually for each cell clone on the cell culture plate. Positive controls were used as follows (final concentrations): 50 μg/ml poly(I:C) for hTLR3-NFκB-293; 8 μM resiquimod (R848) for hTLR7-NFκB-293; 30 μM R848 for hTLR8-NFκB-293; and 2.5 μM CpG-ODN 2006 for hTLR9-NFκB-293. Media alone was used as negative control. After addition of controls and small molecules, the cell clones were additionally stimulated with the EC50 concentration of the appropriate receptor-specific ligand.
The mean value of wells H2 and H5 (each with cells and EC50 concentration of the appropriate receptor-specific ligand) divided by the mean of wells H3 and H6 (each with cells alone) yielded the baseline response (i.e., fold induction of luciferase activity) to EC50 concentration of the appropriate receptor-specific ligand.
After 16 h stimulation the supernatant was removed and the cells treated with lysis buffer and stored at −80° C. before measuring.
For each screen result a graphical documentation was performed.
The baseline result (measured with addition of the EC50 concentration of the receptor-specific ligand) for each cell culture plate was measured as described above. Antagonistic effects were measured by down regulation compared to the baseline. Antagonists were scored as follows: • 13: compounds for which there was clear down regulation at 0.5 μg/ml, 5 μg/ml, and 50 μg/ml; • 12: compounds for which there was clear down regulation at 5 μg/ml and 50 μg/ml; • 11: compounds for which there was clear down regulation only at 50 μg/ml; • —: compounds for which there was no clear down regulation even at 50 μg/ml. Agonists
Results were expressed as fold induction over baseline luciferase activity measured in the absence of poly(I:C). […] Additional screening was performed in like manner using additional small molecules selected from another library or specifically prepared for this purpose. Scoring is reported as above but as applied to TLR3.

Structure (SMILES): CC[C@]12CCCN3CCc4c(n(c5ccccc45)C(=O)C1)[C@@H]32 [compound 607, Eburnamonine]
- hTLR3 (inhibitory effect, antagonist score): — (compounds for which there was no clear down regulation even at 50 μg/ml)

Structure (SMILES): Cc1nccc2c1[nH]c1cc(O)ccc12.Cl [compound 612, Harmol hydrochloride monohydrate]
- hTLR3 (inhibitory effect, antagonist score): 11 (compounds for which there was clear down regulation only at 50 μg/ml)

Structure (SMILES): COc1ccc2c(c1)[nH]c1c(C)nccc12.Cl [compound 613, harmine hydrochloride]
- hTLR3 (inhibitory effect, antagonist score): 12 (compounds for which there was clear down regulation at 5 μg/ml and 50 μg/ml)

Structure (SMILES): Cc1c2ccncc2c(C)c2c1[nH]c1ccccc12 [compound 614, Ellipticine]
- hTLR3 (inhibitory effect, antagonist score): 12 (compounds for which there was clear down regulation at 5 μg/ml and 50 μg/ml)

Structure (SMILES): Cc1nccc2c1[nH]c1ccccc12 [compound 620, Harmane hydrochloride]
- hTLR3 (inhibitory effect, antagonist score): — (compounds for which there was no clear down regulation even at 50 μg/ml)

Structure (SMILES): COc1ccc2[nH]c3c(c2c1)CCN=C3C [compound 621, Methoxy-6-harmalan]
- hTLR3 (inhibitory effect, antagonist score): — (compounds for which there was no clear down regulation even at 50 μg/ml)

Structure (SMILES): CC[C@]12CCCN3CCc4c(n(c5ccccc45)[C@](O)(C(=O)OC)C1)[C@@H]32 [compound 636, Epivincamine]
- hTLR3 (inhibitory effect, antagonist score): 11 (compounds for which there was clear down regulation only at 50 μg/ml)

Structure (SMILES): Cl.Cl.c1ccc2c3c([nH]c2c1)C1C2CCC(C4CCCNC42)N1CC3 (centres unmarked) [compound 685, Nitrarine dihydorchloride]
- hTLR3 (inhibitory effect, antagonist score): — (compounds for which there was no clear down regulation even at 50 μg/ml)

Structure (SMILES): CN(C)CCCN1c2ccccc2Sc2ccccc21.Cl [compound 693, Promazinehydrochloride]
- hTLR3 (inhibitory effect, antagonist score): — (compounds for which there was no clear down regulation even at 50 μg/ml)

Structure (SMILES): CN1CCC(OC(c2ccccc2)c2ccccc2)CC1.Cl [compound 707, Diphenylpyralinehydrochloride]
- hTLR3 (inhibitory effect, antagonist score): — (compounds for which there was no clear down regulation even at 50 μg/ml)

Structure (SMILES): CCCC(C(=O)OCCN(CC)CC)(c1ccccc1)c1ccccc1.Cl [compound 778, Proadifen hydrochloride]
- hTLR3 (inhibitory effect, antagonist score): 11 (compounds for which there was clear down regulation only at 50 μg/ml)

Structure (SMILES): Cl.Clc1ccc(C(OCCN2CCCCC2)c2ccccc2)cc1 (centres unmarked) [compound 793, Cloperastinehydrochloride]
- hTLR3 (inhibitory effect, antagonist score): 11 (compounds for which there was clear down regulation only at 50 μg/ml)

Structure (SMILES): COc1ccc2c(c1)N(CC(C)CN(C)C)c1ccccc1S2.O=C(O)/C=C\C(=O)O (centres unmarked) [compound 797, Methotrimeprazinemaleat salt]
- hTLR3 (inhibitory effect, antagonist score): 11 (compounds for which there was clear down regulation only at 50 μg/ml)

Structure (SMILES): CS(=O)(=O)O.OC(CCN1CCCCC1)(c1ccccc1)c1ccccc1 [compound 799, Pridinolmethanesulfonate salt]
- hTLR3 (inhibitory effect, antagonist score): — (compounds for which there was no clear down regulation even at 50 μg/ml)

Structure (SMILES): C[N+]12CCC(CC1)C(OC(=O)C(O)(c1ccccc1)c1ccccc1)C2.[Br-] (centres unmarked) [compound 822, Clidinium bromide]
- hTLR3 (inhibitory effect, antagonist score): — (compounds for which there was no clear down regulation even at 50 μg/ml)

Structure (SMILES): Clc1ccc(C(c2ccccc2Cl)C(Cl)Cl)cc1 (centres unmarked) [compound 833, Mitotane]
- hTLR3 (inhibitory effect, antagonist score): 11 (compounds for which there was clear down regulation only at 50 μg/ml)

Structure (SMILES): CCN(CC)C(C)CN1c2ccccc2Sc2ccccc21.Cl (centres unmarked) [compound 840, Ethopropazinehydrochloride]
- hTLR3 (inhibitory effect, antagonist score): — (compounds for which there was no clear down regulation even at 50 μg/ml)

Structure (SMILES): CC(CN(C)C)CN1c2ccccc2Sc2ccccc21.CC(CN(C)C)CN1c2ccccc2Sc2ccccc21.O=C(O)C(O)C(O)C(=O)O (centres unmarked) [compound 842, Trimeprazine tartrate]
- hTLR3 (inhibitory effect, antagonist score): — (compounds for which there was no clear down regulation even at 50 μg/ml)

Structure (SMILES): COC(=O)[C@H]1[C@H]2C[C@@H]3c4[nH]c5cc(OC)ccc5c4CCN3C[C@H]2C[C@@H](OC(=O)c2cc(OC)c(OC)c(OC)c2)[C@@H]1OC [compound 875, Reserpine]
- hTLR3 (inhibitory effect, antagonist score): — (compounds for which there was no clear down regulation even at 50 μg/ml)

Structure (SMILES): OCc1cc2c(cn1)[nH]c1ccccc12 [compound 878, 3-hydroxymethyl-beta-carboline]
- hTLR3 (inhibitory effect, antagonist score): — (compounds for which there was no clear down regulation even at 50 μg/ml)

Structure (SMILES): O=C(O)c1cc(C(c2ccc(O)c(C(=O)O)c2)C(Cl)(Cl)Cl)ccc1O [compound 884]
- hTLR3 (inhibitory effect, antagonist score): — (compounds for which there was no clear down regulation even at 50 μg/ml)

Structure (SMILES): CN(CCO)C(=O)c1cccc2c1-c1ccccc1C2=O [compound 890]
- hTLR3 (inhibitory effect, antagonist score): — (compounds for which there was no clear down regulation even at 50 μg/ml)

Structure (SMILES): COC(=O)c1cccc2c1-c1ccccc1/C2=N/O [compound 904]
- hTLR3 (inhibitory effect, antagonist score): 12 (compounds for which there was clear down regulation at 5 μg/ml and 50 μg/ml)

Structure (SMILES): O=C(O)c1ccccc1NC1CC=CC2=C1C(=O)c1ccccc1C2=O (centres unmarked) [compound 917]
- hTLR3 (inhibitory effect, antagonist score): 12 (compounds for which there was clear down regulation at 5 μg/ml and 50 μg/ml)

Structure (SMILES): O=C(O)c1cccc2c1/C(=N/O)c1ccccc1-2 [compound 918]
- hTLR3 (inhibitory effect, antagonist score): — (compounds for which there was no clear down regulation even at 50 μg/ml)

Structure (SMILES): CCCCOC(=O)c1cc([N+](=O)[O-])cc2c1-c1cc(CO)c([NH+]([O-])O)cc1C2=C(C#N)C#N (centres unmarked) [compound 939]
- hTLR3 (inhibitory effect, antagonist score): 11 (compounds for which there was clear down regulation only at 50 μg/ml)

Structure (SMILES): O=C(O)c1cccc2c1-c1ccccc1/C2=N/Nc1ccc([N+](=O)[O-])cc1[N+](=O)[O-] [compound 944]
- hTLR3 (inhibitory effect, antagonist score): 11 (compounds for which there was clear down regulation only at 50 μg/ml)

Structure (SMILES): C=CCc1ccccc1OC1(c2ccccc2)OC(=O)c2ccccc21 (centres unmarked) [compound 957]
- hTLR3 (inhibitory effect, antagonist score): 12 (compounds for which there was clear down regulation at 5 μg/ml and 50 μg/ml)

Structure (SMILES): COC(=O)c1ccc(C2CC(=O)Nc3c2ccc2ccccc32)cc1 (centres unmarked) [compound 965]
- hTLR3 (inhibitory effect, antagonist score): 12 (compounds for which there was clear down regulation at 5 μg/ml and 50 μg/ml)

Structure (SMILES): O=C(O)c1ccc(C2(c3ccc(C(=O)O)cc3)OC(=O)c3ccccc32)cc1 [compound 970]
- hTLR3 (inhibitory effect, antagonist score): — (compounds for which there was no clear down regulation even at 50 μg/ml)

Structure (SMILES): Cc1cc(OC(=O)C2C3CCCCC32)c(C(C)C)cc1C1(c2cc(C(C)C)c(OC(=O)C3C4CCCCC43)cc2C)OC(=O)c2ccccc21 (centres unmarked) [compound 974]
- hTLR3 (inhibitory effect, antagonist score): 11 (compounds for which there was clear down regulation only at 50 μg/ml)

Structure (SMILES): CCN(CC)CCCN(CC(=O)C1c2ccc(Cl)cc2NC(=O)c2ccccc21)C(=O)c1ccccc1 (centres unmarked) [compound 1013]
- hTLR3 (inhibitory effect, antagonist score): — (compounds for which there was no clear down regulation even at 50 μg/ml)
